What was measured:
SF-268 = experiment: Cytotoxicity against human SF268 cells; format: functional
SW-620 = experiment: Cytotoxicity against human SW620 cells; format: functional
HOP-92 = experiment: Cytotoxicity against human HOP92 cells; format: functional
NCI-H522 = experiment: Cytotoxicity against human NCI-H522 cells; format: functional
HL-60(TB) = experiment: Cytotoxicity against human HL-60(TB) cells; format: functional
SR = experiment: Cytotoxicity against human SR cells; format: functional
MDA-MB-435 = experiment: Cytotoxicity against human MDA-MB-435 cells; format: functional
SK-MEL-2 = experiment: Cytotoxicity against human SK-MEL-2 cells; format: functional
UACC-257 = experiment: Cytotoxicity against human UACC257 cells; format: functional
NCI/ADR-RES = experiment: Cytotoxicity against human NCI/ADR-RES cells; format: functional
OVCAR-3 = experiment: Cytotoxicity against human OVCAR3 cells; format: functional
OVCAR-4 = experiment: Cytotoxicity against human OVCAR4 cells; format: functional
OVCAR-5 = experiment: Cytotoxicity against human OVCAR5 cells; format: functional
ACHN = experiment: Cytotoxicity against human ACHN cells; format: functional
[1] = Antiproliferative activity against HMEC1 cells assessed as decrease in cell viability at >50 uM within 72 hrs by calcein AM staining-based fluorescence assay; settings: human, hmec-1, 72 h
[2] = Inhibition of AMPK assessed as residual activity at 10 uM by radioactivity assay in presence of 50 uM ATP
[3] = biological target: Tyrosine-protein kinase BTK (Homo sapiens) (UniProt Q06187); experiment: Inhibition of BTK assessed as residual activity at 10 uM by radioactivity assay in presence of 50 uM ATP
[4] = biological target: Ephrin type-A receptor 4 (Homo sapiens) (UniProt P54764); experiment: Inhibition of EPHA4 assessed as residual activity at 10 uM by radioactivity assay in presence of 50 uM ATP
[5] = biological target: Mitogen-activated protein kinase 3 (Homo sapiens) (UniProt P27361); experiment: Inhibition of ERK1 assessed as residual activity at 10 uM by radioactivity assay in presence of 5 uM ATP
[6] = biological target: Fibroblast growth factor receptor 1 (Homo sapiens) (UniProt P11362); experiment: Inhibition of FGF-R1 assessed as residual activity at 10 uM by radioactivity assay in presence of 20 uM ATP
[7] = biological target: Tyrosine-protein kinase Lck (Homo sapiens) (UniProt P06239); experiment: Inhibition of Lck assessed as residual activity at 10 uM by radioactivity assay in presence of 50 uM ATP
Chain of Tyrosine-protein kinase Lck (Homo sapiens) (P06239 2-509 limits assumed): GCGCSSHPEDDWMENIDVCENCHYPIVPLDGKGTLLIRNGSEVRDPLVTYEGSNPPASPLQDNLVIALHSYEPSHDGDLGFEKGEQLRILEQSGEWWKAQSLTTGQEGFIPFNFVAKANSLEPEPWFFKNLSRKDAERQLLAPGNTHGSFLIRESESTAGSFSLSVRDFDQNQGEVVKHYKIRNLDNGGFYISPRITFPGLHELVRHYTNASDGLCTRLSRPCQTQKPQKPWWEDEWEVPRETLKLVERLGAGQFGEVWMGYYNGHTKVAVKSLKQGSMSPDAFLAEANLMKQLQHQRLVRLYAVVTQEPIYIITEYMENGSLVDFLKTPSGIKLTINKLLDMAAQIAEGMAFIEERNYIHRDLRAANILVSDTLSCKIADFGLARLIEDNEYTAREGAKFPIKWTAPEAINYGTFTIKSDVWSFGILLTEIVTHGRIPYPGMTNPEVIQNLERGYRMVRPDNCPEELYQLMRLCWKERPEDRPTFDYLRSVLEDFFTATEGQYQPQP

[8] = biological target: MAP kinase-activated protein kinase 3 (Homo sapiens) (UniProt Q16644); experiment: Inhibition of MAPKAP-K3 assessed as residual activity at 10 uM by radioactivity assay in presence of 20 uM ATP
[9] = biological target: MAP/microtubule affinity-regulating kinase 3 (Homo sapiens) (UniProt P27448); experiment: Inhibition of MARK3 assessed as residual activity at 10 uM by radioactivity assay in presence of 5 uM ATP
[10] = biological target: Dual specificity mitogen-activated protein kinase kinase 1 (Homo sapiens) (UniProt Q02750); experiment: Inhibition of MKK1 assessed as residual activity at 10 uM by radioactivity assay in presence of 5 uM ATP
[11] = biological target: Mitogen-activated protein kinase kinase kinase 11 (Homo sapiens) (UniProt Q16584); experiment: Inhibition of MLK3 assessed as residual activity at 10 uM by radioactivity assay in presence of 20 uM ATP
Chain of Mitogen-activated protein kinase kinase kinase 11 (Homo sapiens) (Q16584 whole entry, looked up): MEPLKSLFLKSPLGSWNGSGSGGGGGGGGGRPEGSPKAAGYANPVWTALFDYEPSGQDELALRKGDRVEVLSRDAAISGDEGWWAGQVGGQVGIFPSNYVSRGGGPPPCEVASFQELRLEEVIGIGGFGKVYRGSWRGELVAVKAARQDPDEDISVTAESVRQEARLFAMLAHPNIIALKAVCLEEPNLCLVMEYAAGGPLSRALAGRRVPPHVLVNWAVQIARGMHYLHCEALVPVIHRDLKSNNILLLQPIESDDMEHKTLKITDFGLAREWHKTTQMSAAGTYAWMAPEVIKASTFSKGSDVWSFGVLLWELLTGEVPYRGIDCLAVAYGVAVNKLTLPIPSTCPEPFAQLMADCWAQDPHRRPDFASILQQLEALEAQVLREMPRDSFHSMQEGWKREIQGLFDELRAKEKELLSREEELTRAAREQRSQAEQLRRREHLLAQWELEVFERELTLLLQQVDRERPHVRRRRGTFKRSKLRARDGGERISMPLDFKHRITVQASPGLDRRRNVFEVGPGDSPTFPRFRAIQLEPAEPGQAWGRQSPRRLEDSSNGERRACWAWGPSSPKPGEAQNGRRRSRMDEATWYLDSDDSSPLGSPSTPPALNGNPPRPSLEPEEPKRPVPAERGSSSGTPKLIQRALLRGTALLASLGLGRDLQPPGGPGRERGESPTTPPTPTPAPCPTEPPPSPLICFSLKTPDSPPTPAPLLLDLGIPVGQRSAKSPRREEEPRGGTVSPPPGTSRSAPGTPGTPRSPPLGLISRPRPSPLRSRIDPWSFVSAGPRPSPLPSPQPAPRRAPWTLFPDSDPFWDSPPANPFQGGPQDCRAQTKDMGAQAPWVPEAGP

[12] = biological target: Ribosomal protein S6 kinase alpha-5 (Homo sapiens) (UniProt O75582); experiment: Inhibition of MSK1 assessed as residual activity at 10 uM by radioactivity assay in presence of 20 uM ATP
[13] = biological target: NUAK family SNF1-like kinase 1 (Homo sapiens) (UniProt O60285); experiment: Inhibition of NUAK1 assessed as residual activity at 10 uM by radioactivity assay in presence of 20 uM ATP
[14] = biological target: Mitogen-activated protein kinase 14 (Homo sapiens) (UniProt Q16539); experiment: Inhibition of p38alpha MAPK assessed as residual activity at 10 uM by radioactivity assay in presence of 50 uM ATP
[15] = biological target: Serine/threonine-protein kinase PAK 2 (Homo sapiens) (UniProt Q13177); experiment: Inhibition of PAK2 assessed as residual activity at 10 uM by radioactivity assay in presence of 20 uM ATP
[16] = biological target: Serine/threonine-protein kinase PAK 5 (Homo sapiens) (UniProt Q9P286); experiment: Inhibition of PAK5 assessed as residual activity at 10 uM by radioactivity assay in presence of 20 uM ATP
[17] = biological target: Serine/threonine-protein kinase pim-1 (Homo sapiens) (UniProt P11309); experiment: Inhibition of PIM1 assessed as residual activity at 10 uM by radioactivity assay in presence of 20 uM ATP
Chain of Serine/threonine-protein kinase pim-1 (Homo sapiens) (P11309 whole entry, looked up): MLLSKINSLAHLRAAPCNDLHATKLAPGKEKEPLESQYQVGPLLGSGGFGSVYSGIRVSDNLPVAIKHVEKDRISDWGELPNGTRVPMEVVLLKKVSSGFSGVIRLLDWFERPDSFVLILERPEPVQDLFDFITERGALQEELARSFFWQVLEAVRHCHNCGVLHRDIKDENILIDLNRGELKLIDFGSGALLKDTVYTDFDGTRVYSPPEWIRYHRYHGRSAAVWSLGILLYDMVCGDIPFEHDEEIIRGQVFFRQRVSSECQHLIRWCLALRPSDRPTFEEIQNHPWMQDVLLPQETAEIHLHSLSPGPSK

[18] = biological target: RAC-beta serine/threonine-protein kinase (Homo sapiens) (UniProt P31751); experiment: Inhibition of PKBbeta assessed as residual activity at 10 uM by radioactivity assay in presence of 50 uM ATP
[19] = biological target: Protein kinase C alpha type (Homo sapiens) (UniProt P17252); experiment: Inhibition of PKCalpha assessed as residual activity at 10 uM by radioactivity assay in presence of 20 uM ATP
[20] = biological target: Serine/threonine-protein kinase PLK1 (Homo sapiens) (UniProt P53350); experiment: Inhibition of PLK1 assessed as residual activity at 10 uM by radioactivity assay in presence of 5 uM ATP
Chain of Serine/threonine-protein kinase PLK1 (Homo sapiens) (P53350 whole entry): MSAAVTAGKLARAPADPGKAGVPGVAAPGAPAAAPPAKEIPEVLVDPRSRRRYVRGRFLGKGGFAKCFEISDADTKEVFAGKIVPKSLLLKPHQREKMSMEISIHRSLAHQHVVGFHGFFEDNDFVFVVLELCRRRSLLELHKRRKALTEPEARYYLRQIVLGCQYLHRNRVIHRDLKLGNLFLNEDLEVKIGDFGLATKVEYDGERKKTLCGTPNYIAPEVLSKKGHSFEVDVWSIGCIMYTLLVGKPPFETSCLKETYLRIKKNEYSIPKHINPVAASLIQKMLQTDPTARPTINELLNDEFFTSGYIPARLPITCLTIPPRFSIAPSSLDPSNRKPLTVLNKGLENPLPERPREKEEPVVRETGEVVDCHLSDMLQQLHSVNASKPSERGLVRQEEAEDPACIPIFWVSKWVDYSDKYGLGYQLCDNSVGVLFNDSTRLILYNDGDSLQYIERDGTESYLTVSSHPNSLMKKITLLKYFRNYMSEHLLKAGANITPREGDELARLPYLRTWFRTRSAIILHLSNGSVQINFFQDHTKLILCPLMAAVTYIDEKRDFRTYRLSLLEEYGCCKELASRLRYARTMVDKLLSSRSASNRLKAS

[21] = biological target: Rho-associated protein kinase 2 (Homo sapiens) (UniProt O75116); experiment: Inhibition of ROCK2 assessed as residual activity at 10 uM by radioactivity assay in presence of 20 uM ATP
[22] = biological target: Ribosomal protein S6 kinase beta-1 (Homo sapiens) (UniProt P23443); experiment: Inhibition of S6K1 assessed as residual activity at 10 uM by radioactivity assay in presence of 20 uM ATP
Chain of Ribosomal protein S6 kinase beta-1 (Homo sapiens) (P23443 whole entry, looked up): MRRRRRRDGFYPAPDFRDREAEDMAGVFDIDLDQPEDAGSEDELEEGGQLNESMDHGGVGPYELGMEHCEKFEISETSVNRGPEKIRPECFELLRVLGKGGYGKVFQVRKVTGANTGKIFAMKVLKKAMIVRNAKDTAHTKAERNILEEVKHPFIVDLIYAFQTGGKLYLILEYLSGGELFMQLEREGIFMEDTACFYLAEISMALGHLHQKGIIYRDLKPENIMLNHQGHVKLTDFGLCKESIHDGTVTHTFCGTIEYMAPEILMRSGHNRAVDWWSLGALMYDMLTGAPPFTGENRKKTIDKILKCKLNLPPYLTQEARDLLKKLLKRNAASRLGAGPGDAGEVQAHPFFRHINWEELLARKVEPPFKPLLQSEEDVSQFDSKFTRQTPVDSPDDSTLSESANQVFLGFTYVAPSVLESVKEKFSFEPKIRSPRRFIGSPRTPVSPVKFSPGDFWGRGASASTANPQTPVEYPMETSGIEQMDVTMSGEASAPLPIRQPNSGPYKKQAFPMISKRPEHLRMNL

[23] = biological target: Serine/threonine-protein kinase Sgk1 (Homo sapiens) (UniProt O00141); experiment: Inhibition of SGK1 assessed as residual activity at 10 uM by radioactivity assay in presence of 20 uM ATP
Chain of Serine/threonine-protein kinase Sgk1 (Homo sapiens) (O00141 whole entry): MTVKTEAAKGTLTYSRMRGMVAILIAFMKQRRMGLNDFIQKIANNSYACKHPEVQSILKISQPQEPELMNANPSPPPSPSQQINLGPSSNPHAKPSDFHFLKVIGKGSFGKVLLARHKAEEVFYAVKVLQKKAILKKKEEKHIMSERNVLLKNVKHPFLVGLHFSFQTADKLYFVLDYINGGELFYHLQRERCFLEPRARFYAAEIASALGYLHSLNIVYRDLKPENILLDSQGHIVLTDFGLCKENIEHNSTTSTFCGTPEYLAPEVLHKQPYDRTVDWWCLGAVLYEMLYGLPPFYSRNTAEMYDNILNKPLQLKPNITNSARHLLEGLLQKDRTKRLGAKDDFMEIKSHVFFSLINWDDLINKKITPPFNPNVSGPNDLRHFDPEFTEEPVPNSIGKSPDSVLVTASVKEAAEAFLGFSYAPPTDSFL

[24] = biological target: Tyrosine-protein kinase SYK (Homo sapiens) (UniProt P43405); experiment: Inhibition of SYK assessed as residual activity at 10 uM by radioactivity assay in presence of 20 uM ATP
[25] = biological target: High affinity nerve growth factor receptor (Homo sapiens) (UniProt P04629); experiment: Inhibition of TrkA assessed as residual activity at 10 uM by radioactivity assay in presence of 20 uM ATP
[26] = biological target: Dual specificity protein kinase TTK (Homo sapiens) (UniProt P33981); experiment: Inhibition of TTK assessed as residual activity at 10 uM by radioactivity assay in presence of 20 uM ATP
Chain of Dual specificity protein kinase TTK (Homo sapiens) (P33981 whole entry): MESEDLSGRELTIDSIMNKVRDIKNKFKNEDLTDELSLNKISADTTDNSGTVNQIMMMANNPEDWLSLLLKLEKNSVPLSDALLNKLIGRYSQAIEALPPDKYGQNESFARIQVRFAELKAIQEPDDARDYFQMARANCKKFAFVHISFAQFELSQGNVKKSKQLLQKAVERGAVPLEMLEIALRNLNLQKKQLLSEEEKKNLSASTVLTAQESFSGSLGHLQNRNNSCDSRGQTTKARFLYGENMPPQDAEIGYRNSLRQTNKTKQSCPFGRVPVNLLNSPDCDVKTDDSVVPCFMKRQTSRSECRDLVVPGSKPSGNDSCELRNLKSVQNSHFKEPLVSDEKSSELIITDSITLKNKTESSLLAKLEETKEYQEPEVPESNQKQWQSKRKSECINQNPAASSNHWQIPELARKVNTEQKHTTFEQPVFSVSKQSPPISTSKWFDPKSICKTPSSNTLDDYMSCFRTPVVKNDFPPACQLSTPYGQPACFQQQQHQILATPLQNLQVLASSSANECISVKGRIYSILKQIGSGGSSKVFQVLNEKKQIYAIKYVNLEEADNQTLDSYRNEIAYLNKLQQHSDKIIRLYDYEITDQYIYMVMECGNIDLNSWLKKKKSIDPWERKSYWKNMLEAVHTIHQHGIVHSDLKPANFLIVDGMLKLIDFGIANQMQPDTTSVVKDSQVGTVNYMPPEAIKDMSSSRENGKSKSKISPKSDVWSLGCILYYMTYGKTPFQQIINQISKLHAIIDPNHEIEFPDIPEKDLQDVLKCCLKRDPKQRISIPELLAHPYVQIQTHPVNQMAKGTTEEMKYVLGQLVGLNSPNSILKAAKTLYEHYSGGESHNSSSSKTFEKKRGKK

[27] = Inhibition of VEGFR assessed as residual activity at 10 uM by radioactivity assay in presence of 20 uM ATP

Nc1n[nH]c(N)c1/N=N/c1ccc(O)cc1
GI50 (SF-268): 20.6 µM
GI50 (SW-620): 26.3 µM
GI50 (HOP-92): 18.2 µM
GI50 (NCI-H522): 24.3 µM
GI50 (HL-60(TB)): 6.4 µM
GI50 (SR): 10.3 µM
GI50 (MDA-MB-435): 17.1 µM
GI50 (SK-MEL-2): 14.4 µM
GI50 (UACC-257): 24.4 µM
GI50 (NCI/ADR-RES): 22.5 µM
GI50 (OVCAR-3): 22.8 µM
GI50 (OVCAR-4): 19 µM
GI50 (OVCAR-5): 23.5 µM
GI50 (ACHN): 15.6 µM
Activity [1]: Non-toxic
Activity [2]: 82%
Activity [3]: 41%
Activity [4]: 93%
Activity [5]: 115%
Activity [6]: 68%
Activity [7]: 113%
Activity [8]: 89%
Activity [9]: 50%
Activity [10]: 60%
Activity [11]: 31%
Activity [12]: 88%
Activity [13]: 40%
Activity [14]: 101%
Activity [15]: 91%
Activity [16]: 88%
Activity [17]: 40%
Activity [18]: 56%
Activity [19]: 83%
Activity [20]: 77%
Activity [21]: 51%
Activity [22]: 79%
Activity [23]: 94%
Activity [24]: 94%
Activity [25]: 98%
Activity [26]: 55%
Activity [27]: 42%
